Measurements: patent US6949544B2, “Inhibitors of c-Jun N-terminal kinases (JNK) and other protein kinases” (Vertex Pharmaceuticals Incorporated, priority 2001, dated 2005)

Tests used:
Format in all cases: biochemical
[1] = target: T1, activated JNK3 (Homo sapiens, UniProt P53779); test: JNK inhibition assay (spectrophotometric coupled-enzyme assay); conditions: 10 nM activated JNK3, 10 μM ATP; read-out: Activity in the JNK3 Inhibition Assay (Ki rating A-C)
T1 construct: One such construct encodes amino acid residues Ser40-Glu402 of JNK3α1 and is preceded by Met and Gly residues; Met-Gly (initiator methionine and added glycine) (N); made in house; host or cells: E. coli BL21 (DE3)
Description: A BLAST search of the EST database using the published JNK3α1 cDNA as a query identified an EST clone (#632588) that contained the entire coding sequence for human JNK3α1. Polymerase chain reactions (PCR) using pfu polymerase (Strategene) were used to introduce restriction sites into the cDNA for cloning into the pET-15B expression vector at the NcoI and BamHI sites. The protein was expressed in E. coli. […] This truncation corresponds to Ser 2 of JNK1 and JNK2 proteins, and is preceded by a methionine (initiation) and a glycine residue. The glycine residue was added in order to introduce an NcoI site for cloning into the expression vector. In addition, systematic C-terminal truncations were performed by PCR to identify a construct that give rise to diffraction-quality crystals.
5 mg of JNK3 was diluted to 0.5 mg/ml in 50 mM HEPES buffer, pH 7.5, containing 100 mM NaCl, 5 mM DTT, 20 mM MgCl2 and 1 mM ATP. GST-MKK7(DD) was added at a molar ratio of 1:2.5 GST-MKK7:JNK3. After incubation for 30 minutes at 25° C., the reaction mixture was concentrated 5-fold by ultrafiltration in a Centriprep-30 (Amicon, Beverly, Mass.), diluted to 10 ml and an additional 1 mM ATP added. This procedure was repeated three times to remove ADP and replenish ATP. The final addition of ATP was 5 mM and the mixture incubated overnight at 4° C.
The activated JNK3/GST-MKK7(DD) reaction mixture was exchanged into 50 mM HEPES buffer, pH 7.5, containing 5 mM DTT and 5% glycerol (w/v) by dialysis or ultrafiltration. The reaction mixture was adjusted to 1.1 M potassium phosphate, pH 7.5, and purified by hydrophobic interaction chromatography (at 25° C.) using a Rainin Hydropore column. […] Activated JNK3 (i.e. doubly phosphorylated JNK3) was stored at −70° C. at 0.25-1 mg/ml.
Compounds were assayed for the inhibition of JNK3 by a spectrophotometric coupled-enzyme assay. In this assay, a fixed concentration of activated JNK3 (10 nM) was incubated with various concentrations of a potential inhibitor dissolved in DMSO for 10 minutes at 30° C. in a buffer containing 0.1 M HEPES buffer, pH 7.5, containing 10 mM MgCl2, 2.5 mM phosphoenolpyruvate, 200 μM NADH, 150 μg/mL pyruvate kinase, 50 μg/mL lactate dehydrogenase, and 200 μM EGF receptor peptide. […] The reaction was initiated by the addition of 10 μM ATP and the assay plate is inserted into the spectrophotometer's assay plate compartment that was maintained at 30° C. The decrease of absorbance at 340 nm was monitored as a function of time. The rate data as a function of inhibitor concentration was fitted to competitive inhibition kinetic model to determine the Ki.

[2] = target: CDK-2/Cyclin A (Homo sapiens, UniProt P24941); test: CDK2 inhibition assay (standard coupled enzyme assay); conditions: 25 nM CDK-2/Cyclin A; read-out: CDK2 Inhibitory Activity (Ki rating A-C)
Procedure: Compounds were screened in the following manner for their ability to inhibit CDK2 using a standard coupled enzyme assay (Fox et al (1998) Protein Sci 7, 2249).
To an assay stock buffer solution containing 0.1M HEPES 7.5, 10 mM MgCl2, 1 mM DTT, 25 mM NaCl, 2.5 mM phosphoenolpyruvate, […], […], […], […], and 100 μM peptide ([…], American Peptide, Sunnyvale, Calif.) was added a DMSO solution of a compound of the present invention to a final concentration of 30 μM. The resulting mixture was incubated at 30° C. for 10 minutes.
The reaction was initiated by the addition of 10 μL of CDK-2/Cyclin A stock solution to give a final concentration of 25 nM in the assay. The rates of reaction were obtained by monitoring absorbance at 340 nm over a 5-minute read time at 30° C. using a BioRad Ultramark plate reader (Hercules, Calif.). The Ki values were determined from the rate data as a function of inhibitor concentration.

[3] = target: T2, Lck kinase purified from bovine thymus (Bos taurus, UniProt Q3ZCM0); test: Lck inhibition assay (33P incorporation into poly Glu-Tyr); conditions: for Ki: 10 μM ATP, read-out: Activity in the Lck Inhibition Assay (Ki rating A-C)
T2 construct: Lck kinase purified from bovine thymus; purchased Upstate Biotechnology 14-106; host or cells: bovine thymus (tissue-purified)
Procedure: The compounds were assayed as inhibitors of Lck kinase purified from bovine thymus (from Upstate Biotechnology, cat. no. 14-106). Lck kinase activity was monitored by following the incorporation of ^33P from ATP into the tyrosine of a random poly Glu-Tyr polymer substrate of composition, Glu:Tyr=4:1 (Sigma, cat. no. P-0275). The following were the final concentrations of the assay components: 0.05 M HEPES, pH 7.6, 10 mM MgCl2, 2 mM DTT, 0.25 mg/ml BSA, 10 μM ATP (1-2 μCi ^33P-ATP per reaction), 5 mg/ml poly Glu-Tyr, and 1-2 units of lck kinase. In a typical assay, all the reaction components with the exception of ATP were pre-mixed and aliquoted into assay plate wells. […] The assay plate was incubated at 30° C. for 10 min before initiating the reaction with ^33P-ATP. After 20 min of reaction, the reactions were quenched with 150 μl of 10% trichloroacetic acid (TCA) containing 20 mM Na3PO4. The quenched samples were then transferred to a 96-well filter plate (Whatman, UNI-Filter GF/F Glass Fiber Filter, cat no. 7700-3310) installed on a filter plate vacuum manifold. Filter plates were washed four times with 10% TCA containing 20 mM Na3PO4 and then 4 times with methanol. 200 μl of scintillation fluid was then added to each well. The plates were sealed and the amount of radioactivity associated with the filters was quantified on a TopCount scintillation counter.

T2 sequence (Q3ZCM0 1-509): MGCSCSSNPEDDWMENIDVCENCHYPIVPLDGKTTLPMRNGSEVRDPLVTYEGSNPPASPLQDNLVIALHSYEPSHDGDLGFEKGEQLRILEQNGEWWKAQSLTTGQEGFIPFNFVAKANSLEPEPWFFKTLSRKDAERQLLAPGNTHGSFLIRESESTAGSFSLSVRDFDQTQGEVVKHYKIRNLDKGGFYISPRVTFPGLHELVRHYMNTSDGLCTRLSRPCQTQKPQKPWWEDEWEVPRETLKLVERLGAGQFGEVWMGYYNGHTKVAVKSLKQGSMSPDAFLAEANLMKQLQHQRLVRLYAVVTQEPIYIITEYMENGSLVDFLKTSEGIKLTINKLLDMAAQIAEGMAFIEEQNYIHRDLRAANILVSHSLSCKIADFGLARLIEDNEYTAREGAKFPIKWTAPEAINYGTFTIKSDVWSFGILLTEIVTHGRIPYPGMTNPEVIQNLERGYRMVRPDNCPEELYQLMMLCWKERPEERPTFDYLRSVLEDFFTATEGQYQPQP
T1 sequence (P53779 40-402): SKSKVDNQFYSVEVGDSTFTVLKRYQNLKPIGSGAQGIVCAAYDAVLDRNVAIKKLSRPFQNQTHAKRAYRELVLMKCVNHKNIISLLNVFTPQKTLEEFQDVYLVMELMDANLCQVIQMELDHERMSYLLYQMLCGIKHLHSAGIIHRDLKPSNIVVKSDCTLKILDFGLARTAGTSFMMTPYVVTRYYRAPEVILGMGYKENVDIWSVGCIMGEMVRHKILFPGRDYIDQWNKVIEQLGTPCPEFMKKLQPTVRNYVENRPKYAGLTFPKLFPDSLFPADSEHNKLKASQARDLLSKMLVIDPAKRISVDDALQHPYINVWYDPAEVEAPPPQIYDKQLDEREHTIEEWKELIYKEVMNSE

SMILES	Ki [1]	Ki [2]	Ki [3]	Activity in the Lck Inhibition Assay (percent inhibition rating D-F) ([3]; at a 5 μM inhibitor concentration)
COc1cc(-c2ccnc(Nc3cccc(F)c3)n2)cc(OC)c1OCCN1CCOCC1 [Compound I-44]	< 100 nM	> 5000 nM		
CCOc1c(OC)cc(-c2ccnc(Nc3cccc(F)c3)n2)cc1OC [Compound I-45]	< 100 nM	> 5000 nM		
COc1c(Cl)cc(-c2ccnc(Nc3cccc(F)c3)n2)cc1Cl [Compound I-46]	100 to 1000 nM	> 5000 nM		
COc1cc(-c2ccnc(Nc3cccc(C)c3)n2)cc(OC)c1OCCN1CCOCC1 [Compound I-53]	< 100 nM	> 5000 nM		
CCOc1c(OC)cc(-c2ccnc(Nc3cccc(C)c3)n2)cc1OC [Compound I-54]	< 100 nM	> 5000 nM		
COc1c(Cl)cc(-c2ccnc(Nc3cccc(C)c3)n2)cc1Cl [Compound I-55]	< 100 nM	> 5000 nM		
COc1cc(-c2ccnc(Nc3cccc(OCc4ccccc4)c3)n2)cc(OC)c1OC [Compound I-56]	> 1000 nM	> 5000 nM		
COc1ccc(-c2ccnc(Nc3cccc(F)c3)n2)c(OC)c1OC [II-5]			> 1000 nM	
COc1ccc(-c2ccnc(Nc3cccc(C)c3)n2)c(OC)c1OC [II-10]			> 1000 nM	
COc1ccc(Nc2nccc(-c3ccc(OC)c(OC)c3OC)n2)cc1 [II-12]			100 to 1000 nM	
COc1ccc(-c2ccnc(Nc3cc(C)cc(C)c3)n2)c(OC)c1OC [II-14, (3,5-Dimethylphenyl)-[4-(2,3,4-trimethoxyphenyl)-pyrimid-2-yl]-amine]				F (percent inhibition of between 67% and 100%)
COc1ccc(-c2ccnc(Nc3cccc(Oc4ccccc4)c3)n2)c2c1OCCO2 [II-15]			100 to 1000 nM	
COc1ccc(-c2ccnc(Nc3cccc(OCc4ccccc4)c3)n2)c2c1OCCO2 [II-16]			100 to 1000 nM	
COc1c(-c2ccnc(Nc3cccc(Oc4ccccc4)c3)n2)ccc2c1OCCO2 [II-17, [4-(5-Methoxy-2,3-dihydro-benzo[1,4]dioxin-6-yl)-pyrimidin-2-yl]-(3-phenoxyphenyl)-amine]			> 1000 nM	
COc1ccc(-c2ccnc(Nc3cccc(Oc4ccccc4)c3)n2)c(OC)c1OCCN1CCOCC1 [II-19]			> 1000 nM	
COc1ccc(-c2ccnc(Nc3cccc(OCc4ccccc4)c3)n2)c(OC)c1OCCN1CCOCC1 [II-20]			> 1000 nM	
COc1ccc(-c2ccnc(Nc3cccc(Oc4ccccc4)c3)n2)c(OCCN2CCOCC2)c1OC [II-21]			> 1000 nM	
COc1ccc(-c2ccnc(Nc3cccc(OCc4ccccc4)c3)n2)c(OCCN2CCOCC2)c1OC [II-22]			> 1000 nM	
COc1ccc(-c2ccnc(Nc3cccc(Cc4ccccc4)c3)n2)c(OC)c1OC [II-27]			100 to 1000 nM	
COc1cc(Oc2ccccc2)nc(Nc2nccc(-c3ccc(OC)c(OC)c3OC)n2)n1 [II-34]			> 1000 nM	
COc1ccc(-c2ccnc(Nc3cccc(-c4ccccc4Cl)c3)n2)c(OC)c1OC [II-38]			100 to 1000 nM	
COc1ccccc1-c1cccc(Nc2nccc(-c3ccc(OC)c(OC)c3OC)n2)c1 [II-41]			100 to 1000 nM	
COc1cccc(-c2cccc(Nc3nccc(-c4ccc(OC)c(OC)c4OC)n3)c2)c1 [II-42]			100 to 1000 nM	
COc1ccc(-c2ccnc(Nc3cccc(-c4ccc(F)c(Cl)c4)c3)n2)c(OC)c1OC [II-50]		> 5000 nM	100 to 1000 nM	
COc1ccc(-c2ccnc(Nc3cccc(-c4cccc(N)c4)c3)n2)c(OC)c1OC [II-51]		> 5000 nM	100 to 1000 nM	
COc1ccc(-c2ccnc(Nc3cccc(-c4ccc(N(C)C)cc4)c3)n2)c(OC)c1OC [II-52]		> 5000 nM	100 to 1000 nM	
COc1ccc(-c2ccnc(Nc3cccc(-c4cccnc4)c3)n2)c(OC)c1OC [II-53]		> 5000 nM	100 to 1000 nM	
COc1ccc(-c2ccnc(Nc3cc(-c4cccc(Cl)c4)ccc3C)n2)c(OC)c1OC [II-54]		> 5000 nM	100 to 1000 nM	
COc1ccc(-c2ccnc(Nc3cc(-c4cccc(C(F)(F)F)c4)ccc3C)n2)c(OC)c1OC [II-57]		> 5000 nM	> 1000 nM	
COc1ccc(-c2ccnc(Nc3cc(-c4cc(C)ccc4C)ccc3C)n2)c(OC)c1OC [II-58]		> 5000 nM	> 1000 nM	

Continued, in another order:

Ki [1]	Ki [2]	Ki [3]	SMILES	Activity in the Lck Inhibition Assay (percent inhibition rating D-F) ([3]; at a 5 μM inhibitor concentration)
100 to 1000 nM		100 to 1000 nM	COc1cc(-c2ccnc(Nc3nccs3)n2)cc(OC)c1OC [Compound I-85]	
100 to 1000 nM		100 to 1000 nM	COc1cc(-c2ccnc(Nc3cccc(N(C)C)c3)n2)cc(OC)c1OC [Compound I-89]	
< 100 nM		100 to 1000 nM	COc1cc(-c2ccnc(Nc3cccc(S(N)(=O)=O)c3)n2)cc(OC)c1OC [Compound I-94]	
		100 to 1000 nM	COc1ccc(-c2ccnc(Nc3cccc(OCc4ccccc4)c3)n2)c(OC)c1OC [II-2]	
		100 to 1000 nM	COc1ccc(-c2ccnc(Nc3ccc([N+](=O)[O-])cc3)n2)c(OC)c1OC [II-4]	
		100 to 1000 nM	COc1cccc(Nc2nccc(-c3ccc(OC)c(OC)c3OC)n2)c1 [II-6]	
		< 100 nM	COc1ccc(-c2ccnc(Nc3cccc(Oc4ccncc4)c3)n2)c(OC)c1OC [II-23]	
		< 100 nM	COc1ccc(Oc2ccccc2)cc1Nc1nccc(-c2ccc(OC)c(OC)c2OC)n1 [II-31]	
		< 100 nM	COc1ccc(-c2ccnc(Nc3cccc(-c4ccccc4F)c3)n2)c(OC)c1OC [II-35]	
		< 100 nM	COc1ccc(-c2ccnc(Nc3cccc(-c4cccc(F)c4)c3)n2)c(OC)c1OC [II-36]	
		< 100 nM	COc1ccc(-c2ccnc(Nc3cccc(-c4ccc(F)cc4)c3)n2)c(OC)c1OC [II-37]	
		< 100 nM	COc1ccc(-c2ccnc(Nc3cccc(-c4cccc(Cl)c4)c3)n2)c(OC)c1OC [II-39]	
		< 100 nM	COc1ccc(-c2ccnc(Nc3cccc(-c4ccc(Cl)cc4)c3)n2)c(OC)c1OC [II-40]	
		< 100 nM	COc1ccc(-c2cccc(Nc3nccc(-c4ccc(OC)c(OC)c4OC)n3)c2)cc1 [II-43]	
	> 5000 nM	< 100 nM	COc1ccc(-c2ccnc(Nc3cccc(-c4ccc(CO)cc4)c3)n2)c(OC)c1OC [II-49]	
	> 5000 nM	< 100 nM	COc1ccc(-c2ccnc(Nc3cc(-c4ccc(N(C)C)cc4)ccc3C)n2)c(OC)c1OC [II-55]	
